# Test results taken from patent publication US9521846B2, “Template-fixed peptidomimetics with antimicrobial activity” (priority 2006, dated 2016).
# Non-standard residues stand in square brackets, D forms with d. Residues, ends and D or L forms follow the SMILES beside them. Cha = N[C@@H](CC1CCCCC1)C(=O)O; dDab = NCC[C@@H](N)C(=O)O; Dab = NCC[C@H](N)C(=O)O
# Key:
# P. aeruginosa ATCC 27853 = assay type: cell-based, Pseudomonas aeruginosa; settings: ATCC 27853
# Outline: (§1)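 Peptide activity was measured by a modified NCCLS broth microdilution method in Mueller-Hinton broth with 0.02% BSA. An inoculum adjusted against a 0.5 McFarland standard to about 10^6 CFU/ml was mixed 1:1 with two-fold serial peptide dilutions.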
# [1] = system: Pseudomonas aeruginosa IMP 1 Livermore 3140; assay type: cell-based; settings: IMP 1 Livermore 3140
# Outline: as §1
# [2] = system: Pseudomonas aeruginosa P1021903; assay type: cell-based; settings: P1021903
# Outline: as §1
# [3] = system: Pseudomonas aeruginosa P1021913; assay type: cell-based; settings: P1021913
# Outline: as §1
# [4] = system: Pseudomonas aeruginosa P8191900; assay type: cell-based; settings: P8191900
# Outline: as §1
# HELA cells (Acc57) = assay: Cytotoxicity assay, MTT reduction (LC 50, GI 50); assay type: cell-based
# Outline: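 HeLa cells seeded at 7.0×10^3 cells/well, grown 24 h, then exposed to peptides at 12.5, 25 and 50 μM in triplicate for 48 h at 37 °C; MTT (0.5 mg/ml, 2 h), A595 read. Percent growth was taken relative to time-zero plates; LC50 and GI50 were interpolated by linear trend at −50% and 50% growth.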
# [5] = system: human red blood cells (hRBC); assay: Hemolysis; assay type: cell-based; settings: 100
MIC P. aeruginosa ATCC 27853 (P. aeruginosa ATCC 27853) [µg/mL],MIC P. aeruginosa IMP1 Livermore 3140 [1] [µg/mL],MIC P. aeruginosa P1021903 [2] [µg/mL],MIC P. aeruginosa P1021913 [3] [µg/mL],MIC P. aeruginosa P8191900 [4] [µg/mL],Average MIC (P. aeruginosa) [µg/mL],SMILES,Cytotoxicity GI50 Hela cells (HELA cells (Acc57)) [µM],Hemolysis at 100 μg/ml [5] [%]
0.25,1.00,0.50,1.00,0.50,0.65,CC[C@H](C)[C@@H]1NC(=O)[C@H](Cc2c[nH]c3ccccc23)NC(=O)[C@H](CCC(=O)O)NC(=O)[C@@H]2CCCN2C(=O)[C@H]2CCCN2C(=O)[C@H](CCC(N)=O)NC(=O)[C@H](C)NC(=O)[C@H](CCN)NC(=O)[C@H](CCN)NC(=O)[C@H](Cc2c[nH]c3ccccc23)NC(=O)[C@H](CCN)NC(=O)[C@@H](CCN)NC(=O)[C@H](CCCCN)NC(=O)[C@H](CCN)NC1=O [Example 45] (cyclo(EWI[Dab]K[dDab][Dab]W[Dab][Dab]AQ[dP]P)),50,0.2
1.00,>2,1.50,1.25,1.00,>1,CC[C@H](C)[C@@H]1NC(=O)[C@H](Cc2c[nH]c3ccccc23)NC(=O)[C@H](C)NC(=O)[C@@H]2CCCN2C(=O)[C@H]2CCCN2C(=O)[C@H](CCN)NC(=O)[C@H](C(C)C)NC(=O)[C@H](CCN)NC(=O)[C@H](CCN)NC(=O)[C@H](Cc2c[nH]c3ccccc23)NC(=O)[C@H](CCN)NC(=O)[C@H](CCN)NC(=O)[C@H](CCN)NC(=O)[C@H](CCN)NC1=O [Example 23] (cyclo(AWI[Dab][Dab][Dab][Dab]W[Dab][Dab]V[Dab][dP]P)),13,0.5
0.05,0.60,0.29,0.48,0.24,0.33,C[C@@H]1NC(=O)[C@H](CCN)NC(=O)[C@H](CCN)NC(=O)[C@H](Cc2c[nH]c3ccccc23)NC(=O)[C@H](CCN)NC(=O)[C@H](CCN)NC(=O)[C@H](CCCCN)NC(=O)[C@H](CCN)NC(=O)[C@H](CC2CCCCC2)NC(=O)[C@H](Cc2c[nH]c3ccccc23)NC(=O)[C@H]([C@@H](C)O)NC(=O)[C@@H]2CCCN2C(=O)[C@H]2CCCN2C(=O)[C@H](CCN)NC1=O [Example 34] (cyclo(TW[Cha][Dab]K[Dab][Dab]W[Dab][Dab]A[Dab][dP]P)),50,0

# The remaining lines, values behind:
SMILES,MIC P. aeruginosa ATCC 27853 (P. aeruginosa ATCC 27853) [µg/mL],MIC P. aeruginosa IMP1 Livermore 3140 [1] [µg/mL],MIC P. aeruginosa P1021903 [2] [µg/mL],MIC P. aeruginosa P1021913 [3] [µg/mL],MIC P. aeruginosa P8191900 [4] [µg/mL],Average MIC (P. aeruginosa) [µg/mL],Cytotoxicity GI50 Hela cells (HELA cells (Acc57)) [µM],Hemolysis at 100 μg/ml [5] [%]
CC[C@H](C)[C@@H]1NC(=O)[C@H](Cc2c[nH]c3ccccc23)NC(=O)[C@H]([C@@H](C)O)NC(=O)[C@@H]2CCCN2C(=O)[C@H]2CCCN2C(=O)[C@H](CCN)NC(=O)[C@H](C)NC(=O)[C@H](CCN)NC(=O)[C@H](CCN)NC(=O)[C@H](Cc2c[nH]c3ccccc23)NC(=O)[C@H](CCN)NC(=O)[C@@H](CCN)NC(=O)[C@H](CCCCN)NC(=O)[C@H](CCN)NC1=O [Example 41] (cyclo(TWI[Dab]K[dDab][Dab]W[Dab][Dab]A[Dab][dP]P)),0.02,0.25,0.03,0.25,0.05,0.12,50,0.2
CC[C@H](C)[C@@H]1NC(=O)[C@H](Cc2c[nH]c3ccccc23)NC(=O)[C@H]([C@@H](C)O)NC(=O)[C@@H]2CCCN2C(=O)[C@H]2CCCN2C(=O)[C@H](CCN)NC(=O)[C@H](C)NC(=O)[C@H](CCN)NC(=O)[C@H](CCN)NC(=O)[C@H](Cc2c[nH]c3ccccc23)NC(=O)[C@H](CCCCN)NC(=O)[C@H](CCN)NC(=O)[C@H](CCCCN)NC(=O)[C@H](CCN)NC1=O [Example 26] (cyclo(TWI[Dab]K[Dab]KW[Dab][Dab]A[Dab][dP]P)),0.08,0.40,0.13,0.18,0.30,0.22,50,0.8
CC[C@H](C)[C@@H]1NC(=O)[C@H](Cc2c[nH]c3ccccc23)NC(=O)[C@H]([C@@H](C)O)NC(=O)[C@@H]2CCCN2C(=O)[C@H]2CCCN2C(=O)[C@H](CCN)NC(=O)[C@@H]2CCCN2C(=O)[C@H](CCN)NC(=O)[C@H](CCN)NC(=O)[C@H](Cc2c[nH]c3ccccc23)NC(=O)[C@H](CCN)NC(=O)[C@H](CCN)NC(=O)[C@H](CCCCN)NC(=O)[C@H](CCN)NC1=O [Example 17] (cyclo(TWI[Dab]K[Dab][Dab]W[Dab][Dab]P[Dab][dP]P)),0.75,>2,2.00,1.25,1.50,>1,29,0.5
CC[C@H](C)[C@@H]1NC(=O)[C@H](Cc2c[nH]c3ccccc23)NC(=O)[C@H]([C@@H](C)O)NC(=O)[C@@H]2CCCN2C(=O)[C@H]2CCCN2C(=O)[C@H](CCN)NC(=O)[C@H](CC(C)C)NC(=O)[C@H](CCN)NC(=O)[C@H](CCN)NC(=O)[C@H](Cc2c[nH]c3ccccc23)NC(=O)[C@H](CCN)NC(=O)[C@H](CCN)NC(=O)[C@H](CCCCN)NC(=O)[C@H](CCN)NC1=O [Example 7] (cyclo(TWI[Dab]K[Dab][Dab]W[Dab][Dab]L[Dab][dP]P)),0.13,>2,1.50,0.65,0.50,>1,13,0.8
